{"source": "patent US11787816B2", "about": "“Chlorin compound, and preparation and use thereof” (Southwest Jiaotong University, priority 2021, dated 2023)", "key": {"[1]": {"tested_on": "murine mammary carcinoma 4T1 cells", "test": "Photosensitizer-mediated PDT, in vitro proliferation (MTT), 4T1", "format": "cell-based", "protocol": "(§1) Several kinds of tumor cells (human cervical cancer Hela cells, human hepatocellular carcinoma huh-7 cells and murine mammary carcinoma 4T1 cells) cultured in vitro from a variety of tissues were taken as cell models, so as to investigate the photodynamic effects mediated by different doses of CEFN, CEFO, Ce6 and HPPH on the three different tumor cells (n=3). The specific experimental procedures were carried out as follows.\n(§2) Cells in the logarithmic growth phase were harvested and seeded in a 24-well plate. After growing to a confluence of 70-80%, the cells were randomly divided into a control group (free of drug and light irradiation), a drug group and a photodynamic group. The CEFN, CEFO, Ce6 and HPPH were added respectively in dark, and for each drug, four final concentrations 1, 2, 5, and 10 μg/mL were set with 3 replicates for each group. After the co-incubation, the groups were treated individually. Regarding the photodynamic group, the light irradiation was performed at a wavelength of 660 nm and three different light intensities, i.e., 2, 4 and 8 J/cm^2. After that, each group was digested, and were inoculated into a 96-well plate at 100 μL per well with 4 replicates for each treatment. 24 hours later, the 96-well plate was subjected to MTT assay as follows. Each well was added with 20 μL of MTT (3-4,5-dimethylthiazol-2,5-diphenyltetrazolium bromide) solution in the dark and incubated for 4 hours. The supernatant was discarded, and the residue was dissolved with 150 μL of dimethyl sulfoxide for 15 min. After that, the 96-well plate was measured by a microplate reader for the absorbance (OD value). The relative cell viability was calculated as follows: relative cell viability=OD value of experimental group/OD value of control group*100%.\nIn this experiment, photodynamic effect mediated by the compounds (except CEFO and CEFN) in different Examples of this disclosure on the murine mammary carcinoma 4T1 cells was investigated. The experimental procedures are carried out as follows. Cells in the logarithmic growth phase were harvested and seeded in a 24-well plate. After growing to a confluence of 70-80%, the cells were randomly divided into multiple photodynamic groups and multiple no-light control groups. The compounds (as shown in Table 8a) with a final concentration of 10 μg/mL were added to each group respectively in dark with 3 replicates for each group, so as to co-incubate the cells with the drug. Regarding the multiple photodynamic groups, the light irradiation was performed at a wavelength of 660 nm and the light intensity of 8 J/cm^2. After that, each group was digested, and were inoculated into a 96-well plate at 100 μL per well with 4 replicates for light treatment and no light treatment. 24 hours later, the 96-well plate was measured by MTT assay as follows. Each well was added with 20 μL of MTT (3-4,5-dimethylthiazol-2,5-diphenyltetrazolium bromide) solution in the dark and incubated for 4 hours. The supernatant was discarded, and the residue was dissolved with 150 μL of dimethyl sulfoxide for 15 min. After that, the 96-well plate was measured by a microplate reader for the absorbance (OD value). The relative cell viability of the murine mammary carcinoma 4T1 cells was calculated as follows according to the measured absorbance (OD value) in each group: relative cell viability=OD value of experimental group/OD value of control group*100%."}, "[2]": {"tested_on": "human hepatocellular carcinoma huh-7 cells", "test": "Photosensitizer-mediated PDT, in vitro proliferation (MTT), huh-7", "format": "cell-based", "protocol": "as §1, §2"}, "[3]": {"settings": "background statement; cited from earlier work"}, "[4]": {"tested_on": "murine mammary carcinoma 4T1 cells", "test": "Antitumor activity as photosensitizers on tumor-bearing mice (one PDT treatment)", "format": "in vivo", "settings": "for Inhibitory rate (average ± SD, %) / Tumor weight (average ± SD, g): 660 nm, 75 Joule/cm^2 6 h after dosing, 7 days after PDT; for Body weight At the begining / Body weight At the end: one PDT treatment, mice, in g (unit assumed)", "protocol": "(§3) The murine mammary carcinoma cells (4T1 line) were subjected to adherent culture. After growing to a confluence of 70%-80%, the cells in the culture flask were routinely digested, centrifuged and counted, and then resuspended with 0.85% normal saline to a density of 1×10^7 cells/mL. The cell suspension was injected into the left lateral middle axillary subcutaneous part of […] Bal b/c healthy mice (female, aged 6-8 weeks) at 0.1 mL/mouse. When the tumor diameter, which was observed every other day, reached 0.6-0.8 cm, the mice with well-growing tumors and no ulcers on the epidermis were selected for grouped treatment.\n(1) Mice with similar body weight and uniform tumor size are selected and randomly divided into 7 groups with 6 mice for each group. After inoculation for 48 h, the mice were subjected to drug administration separately from the tail vein by group.\n6 h after the drug administration, the mice were fixed to expose the tumor growth site. Light irradiation was performed for 8 min, using PDT-660 photodynamic therapy equipment at a laser wavelength of 660 nm and a light dose of 75 Joule/cm^2. Then both of the mice growth and tumor growth are observed continuously. 7 days after photodynamic therapy, the animals were sacrificed. The tumor was stripped and weighed, and the body weight was recorded."}, "[5]": {"tested_on": "human cervical cancer Hela cells", "test": "Photosensitizer-mediated PDT, in vitro proliferation (MTT), Hela", "format": "cell-based", "settings": "Hela", "protocol": "as §1, §2"}, "[6]": {"tested_on": "murine mammary carcinoma 4T1 cells", "test": "Antitumor activity as photosensitizers on tumor-bearing mice (two PDT treatments)", "format": "in vivo", "protocol": "as §3\n(2) Mice with similar body weight and uniform tumor size are selected and randomly divided into 4 groups with 6 mice for each group. After inoculation of 4T1 cells and the tumor volume grows to 50˜80 mm^3, the mice were subjected to a first drug administration from the tail vein by group.\n6 h after the drug administration, the mice were fixed to expose the tumor growth site. As a first PDT treatment, light irradiation was performed for 8 min, using PDT-660 photodynamic therapy equipment at the laser wavelength of 660 nm and the light dose of 150 Joule/cm^2. One week later, the second PDT treatment (the dosage and lighting conditions were the same as those of the first PDT treatment) was performed. The mice were sacrificed 14 days after the treatment. The tumor was removed, weighed and recorded."}, "[7]": {"settings": "0.25 mg/kg tail vein, two PDT treatments one week apart, 660 nm, 150 Joule/cm^2, 14 days after treatment"}, "[8]": {"settings": "0.25 mg/kg, two PDT treatments, mice, in g (unit assumed)"}}}
{"smiles": "CCCCCCOC(C)c1c(C)c2cc3nc(c4c5[nH]c(cc6nc(cc1[nH]2)C(C)=C6CC)c(C)c5C(=O)C4)[C@@H](CCC(=O)O)[C@@H]3C", "note": "(stereo partly shown) [HPPH, 2-(1-hexyloxyethyl)-2-devinyl pyropheophorbide-a, reference compound]", "values": [{"measurement": "cell viability (%)", "setting": "[1]; 1 μg/mL, 660 nm, 8 J/cm^2", "result": "83 ± 3", "unit": "%"}, {"measurement": "cell viability (%)", "setting": "[1]; 1 μg/mL, no light", "result": "107 ± 4", "unit": "%"}, {"measurement": "cell viability (%)", "setting": "[1]; 2 μg/mL, 660 nm, 8 J/cm^2", "result": "53 ± 2", "unit": "%"}, {"measurement": "cell viability (%)", "setting": "[1]; 2 μg/mL, no light", "result": "103 ± 2", "unit": "%"}, {"measurement": "cell viability (%)", "setting": "[1]; 5 μg/mL, 660 nm, 8 J/cm^2", "result": "33 ± 2", "unit": "%"}, {"measurement": "cell viability (%)", "setting": "[1]; 5 μg/mL, no light", "result": "98 ± 1", "unit": "%"}, {"measurement": "cell viability (%)", "setting": "[1]; 10 μg/mL, 660 nm, 8 J/cm^2", "result": "11 ± 2", "unit": "%"}, {"measurement": "cell viability (%)", "setting": "[1]; 10 μg/mL, no light", "result": "99 ± 44", "unit": "%"}, {"measurement": "cell viability (%)", "setting": "[2]; 1 μg/mL, 660 nm, 8 J/cm^2", "result": "68 ± 3", "unit": "%"}, {"measurement": "cell viability (%)", "setting": "[2]; 1 μg/mL, no light", "result": "102 ± 4", "unit": "%"}, {"measurement": "cell viability (%)", "setting": "[2]; 2 μg/mL, 660 nm, 8 J/cm^2", "result": "37 ± 3", "unit": "%"}, {"measurement": "cell viability (%)", "setting": "[2]; 2 μg/mL, no light", "result": "98 ± 2", "unit": "%"}, {"measurement": "cell viability (%)", "setting": "[2]; 5 μg/mL, 660 nm, 8 J/cm^2", "result": "26 ± 2", "unit": "%"}, {"measurement": "cell viability (%)", "setting": "[2]; 5 μg/mL, no light", "result": "97 ± 1", "unit": "%"}, {"measurement": "cell viability (%)", "setting": "[2]; 10 μg/mL, 660 nm, 8 J/cm^2", "result": "12 ± 2", "unit": "%"}, {"measurement": "cell viability (%)", "setting": "[2]; 10 μg/mL, no light", "result": "101 ± 4", "unit": "%"}, {"measurement": "water solubility", "setting": "[3]", "result": "water-insoluble"}, {"measurement": "Inhibitory rate (average ± SD, %)", "setting": "[4]; 0.2 mg/kg tail vein", "result": "72.2 ± 3.5", "unit": "%"}, {"measurement": "Tumor weight (average ± SD, g)", "setting": "[4]; 0.2 mg/kg tail vein", "result": "0.045 ± 0.006", "unit": "g"}, {"measurement": "Body weight At the begining", "setting": "[4]; 0.2 mg/kg", "result": "20.5 ± 0.4"}, {"measurement": "Body weight At the end", "setting": "[4]; 0.2 mg/kg", "result": "21.6 ± 0.4"}, {"measurement": "Inhibitory rate (average ± SD, %)", "setting": "[4]; 0.4 mg/kg tail vein", "result": "89.5 ± 2.5", "unit": "%"}, {"measurement": "Tumor weight (average ± SD, g)", "setting": "[4]; 0.4 mg/kg tail vein", "result": "0.017 ± 0.004", "unit": "g"}, {"measurement": "Body weight At the begining", "setting": "[4]; 0.4 mg/kg", "result": "20.7 ± 0.3"}, {"measurement": "Body weight At the end", "setting": "[4]; 0.4 mg/kg", "result": "21.8 ± 0.2"}, {"measurement": "cell viability (%)", "setting": "[5]; 1 μg/mL, 660 nm, 8 J/cm^2", "result": "65 ± 4", "unit": "%"}, {"measurement": "cell viability (%)", "setting": "[5]; 1 μg/mL, no light", "result": "100 ± 3", "unit": "%"}, {"measurement": "cell viability (%)", "setting": "[5]; 2 μg/mL, 660 nm, 8 J/cm^2", "result": "46 ± 1", "unit": "%"}, {"measurement": "cell viability (%)", "setting": "[5]; 2 μg/mL, no light", "result": "100 ± 2", "unit": "%"}, {"measurement": "cell viability (%)", "setting": "[5]; 5 μg/mL, 660 nm, 8 J/cm^2", "result": "25 ± 2", "unit": "%"}, {"measurement": "cell viability (%)", "setting": "[5]; 5 μg/mL, no light", "result": "102 ± 3", "unit": "%"}, {"measurement": "cell viability (%)", "setting": "[5]; 10 μg/mL, 660 nm, 8 J/cm^2", "result": "12 ± 4", "unit": "%"}, {"measurement": "cell viability (%)", "setting": "[5]; 10 μg/mL, no light", "result": "96 ± 4", "unit": "%"}, {"measurement": "Inhibitory rate (average ± SD, %)", "setting": "[6]; [7]", "result": "90.7 ± 2.1", "unit": "%"}, {"measurement": "Tumor weight (average ± SD, g)", "setting": "[6]; [7]", "result": "0.088 ± 0.020", "unit": "g"}, {"measurement": "Body weight At the beginning", "setting": "[6]; [8]", "result": "20.5 ± 0.4"}, {"measurement": "Body weight At the end", "setting": "[6]; [8]", "result": "22.5 ± 0.2"}]}
